Experimental data from publication PMC9848300, “Discovery of novel enasidenib analogues targeting inhibition of mutant isocitrate dehydrogenase 2 as antileukaemic agents” (Journal of Enzyme Inhibition and Medicinal Chemistry, 2023).
Where two headings read alike, the source gives them in different places.

Key:
Type in all cases: cell-based
HOP-92 = assay: NCI 60 antitumor screening (single dose / five doses); conditions: Homo sapiens
MCF7 = assay: NCI 60 antitumor screening (single dose); conditions: Homo sapiens; MCF7 (breast cancer), single dose 10 μM; read-out: Growth inhibition percentage (GI %)
Procedure, shortened: (§1)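 NCI-60 one-dose screen. Dose: 10 μM. Lines: 60 human tumour lines, nine tissue types. Output: GI% = 100 − G%.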

NCI-H460 = assay: NCI 60 antitumor screening (single dose); conditions: Homo sapiens; NCI-H460 (non-small cell lung cancer), single dose 10 μM; read-out: Growth inhibition percentage (GI %)
Procedure, shortened: (§2)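 Values are GI% (100 minus percent growth, G%) from the NCI 60 cell line screen at one 10 μM concentration. Tests were done in triplicate under NCI protocol, with a mean across the whole panel reported as well.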

NCI-H226 = assay: NCI 60 antitumor screening (single dose); conditions: Homo sapiens; NCI-H226 (non-small cell lung cancer), single dose 10 μM; read-out: Growth inhibition percentage (GI %)
Procedure, shortened: as §1

OVCAR-5 = assay: NCI 60 antitumor screening (single dose); conditions: Homo sapiens; OVCAR-5 (ovarian cancer), single dose 10 μM; read-out: Growth inhibition percentage (GI %)
Procedure, shortened: as §2

A549/ATCC = assay: NCI 60 antitumor screening (single dose); conditions: Homo sapiens; A549/ATCC (non-small cell lung cancer), single dose 10 μM; read-out: Growth inhibition percentage (GI %)
Procedure, shortened: as §1

OVCAR-4 = assay: NCI 60 antitumor screening (single dose); conditions: Homo sapiens; OVCAR-4 (ovarian cancer), single dose 10 μM; read-out: Growth inhibition percentage (GI %)
Procedure, shortened: as §1

M14 = assay: NCI 60 antitumor screening (single dose); conditions: Homo sapiens; M14 (melanoma), single dose 10 μM; read-out: Growth inhibition percentage (GI %)
Procedure, shortened: as §1

OVCAR-8 = assay: NCI 60 antitumor screening (single dose); conditions: Homo sapiens; OVCAR-8 (ovarian cancer), single dose 10 μM; read-out: Growth inhibition percentage (GI %)
Procedure, shortened: as §1

NCI-H322M = assay: NCI 60 antitumor screening (single dose); conditions: Homo sapiens; NCI-H322M (non-small cell lung cancer), single dose 10 μM; read-out: Growth inhibition percentage (GI %)
Procedure, shortened: as §1

OVCAR-3 = assay: NCI 60 antitumor screening (single dose); conditions: Homo sapiens; OVCAR-3 (ovarian cancer), single dose 10 μM; read-out: Growth inhibition percentage (GI %)
Procedure, shortened: as §1

KM 12 = assay: NCI 60 antitumor screening (single dose); conditions: Homo sapiens, KM12; KM 12 (colon cancer), single dose 10 μM; read-out: Growth inhibition percentage (GI %)
Procedure, shortened: as §1

SK-OV-3 = assay: NCI 60 antitumor screening (single dose); conditions: Homo sapiens; SK-OV-3 (ovarian cancer), single dose 10 μM; read-out: Growth inhibition percentage (GI %)
Procedure, shortened: as §2

HS 578T = assay: NCI 60 antitumor screening (single dose); conditions: Homo sapiens; HS 578T (breast cancer), single dose 10 μM; read-out: Growth inhibition percentage (GI %)
Procedure, shortened: as §1

NCI-H23 = assay: NCI 60 antitumor screening (single dose); conditions: Homo sapiens; NCI-H23 (non-small cell lung cancer), single dose 10 μM; read-out: Growth inhibition percentage (GI %)
Procedure, shortened: as §2

HOP-62 = assay: NCI 60 antitumor screening (single dose); conditions: Homo sapiens; HOP-62 (non-small cell lung cancer), single dose 10 μM; read-out: Growth inhibition percentage (GI %)
Procedure, shortened: as §2

SNB-19 = assay: NCI 60 antitumor screening (single dose); conditions: Homo sapiens; SNB-19 (CNS cancer), single dose 10 μM; read-out: Growth inhibition percentage (GI %)
Procedure, shortened: as §1

SF-268 = assay: NCI 60 antitumor screening (single dose); conditions: Homo sapiens; SF-268 (CNS cancer), single dose 10 μM; read-out: Growth inhibition percentage (GI %)
Procedure, shortened: as §2

U251 = assay: NCI 60 antitumor screening (single dose); conditions: Homo sapiens, U-251; U251 (CNS cancer), single dose 10 μM; read-out: Growth inhibition percentage (GI %)
Procedure, shortened: as §2

HCC-2998 = assay: NCI 60 antitumor screening (single dose); conditions: Homo sapiens; HCC-2998 (colon cancer), single dose 10 μM; read-out: Growth inhibition percentage (GI %)
Procedure, shortened: as §2

NCI-H522 = assay: NCI 60 antitumor screening (single dose); conditions: Homo sapiens; NCI-H522 (non-small cell lung cancer), single dose 10 μM; read-out: Growth inhibition percentage (GI %)
Procedure, shortened: as §2

PC-3 = assay: NCI 60 antitumor screening (single dose); conditions: Homo sapiens; PC-3 (prostate cancer), single dose 10 μM; read-out: Growth inhibition percentage (GI %)
Procedure, shortened: as §1

TK-10 = assay: NCI 60 antitumor screening (single dose); conditions: Homo sapiens; TK-10 (renal cancer), single dose 10 μM; read-out: Growth inhibition percentage (GI %)
Procedure, shortened: as §1

CAKI-1 = assay: NCI 60 antitumor screening (single dose); conditions: Homo sapiens; CAKI-1 (renal cancer), single dose 10 μM; read-out: Growth inhibition percentage (GI %)
Procedure, shortened: as §1

RXF 393 = assay: NCI 60 antitumor screening (single dose / five doses); conditions: Homo sapiens
MDA-MB-435 = assay: as above; conditions: Homo sapiens
SR = assay: as above; conditions: Homo sapiens; for inhibition at 10 µM: read-out: Growth inhibition percentage (GI %)
[1] = HOP-92, read-out: Growth inhibition percentage (GI %)
[2] = RXF 393, read-out: Growth inhibition percentage (GI %)
[3] = MDA-MB-435, read-out: Growth inhibition percentage (GI %)
[4] = HOP-92 (non-small cell lung cancer), single dose 10 μM, read-out: Growth inhibition percentage (GI %)
[5] = RXF 393 (renal cancer), single dose 10 μM, read-out: Growth inhibition percentage (GI %)
[6] = MDA-MB-435 (melanoma), single dose 10 μM, read-out: Growth inhibition percentage (GI %)
[7] = SR (leukaemia), single dose 10 μM

O=[N+]([O-])c1cccc(/C=N/Nc2nc(N/N=C/c3cccc([N+](=O)[O-])c3)nc(N3CCCCC3)n2)c1 [compound 7f, 2,4-Bis[(E)-2-[(3-Nitrophenyl)methylidene]hydrazin-1-yl]-6-(piperidin-1-yl)-1,3,5-triazine]
inhibition at 10 µM (HOP-92; [1]): 20.9%
inhibition at 10 µM (MCF7): 38.7%
inhibition at 10 µM (NCI-H460): 31.3%
inhibition at 10 µM (NCI-H226): 42.6%
inhibition at 10 µM (OVCAR-5): -13%
inhibition at 10 µM (A549/ATCC): 39.3%
inhibition at 10 µM (OVCAR-4): 32.3%
inhibition at 10 µM (M14): 41.2%
inhibition at 10 µM (OVCAR-8): 48.9%
inhibition at 10 µM (NCI-H322M): 13.8%
inhibition at 10 µM (OVCAR-3): 44.4%
inhibition at 10 µM (KM 12): 35.2%
inhibition at 10 µM (SK-OV-3): -14.3%
inhibition at 10 µM (HS 578T): 20.8%
inhibition at 10 µM (NCI-H23): 37.8%
inhibition at 10 µM (HOP-62): 41.5%
inhibition at 10 µM (SNB-19): 11.5%
inhibition at 10 µM (SF-268): 24.3%
inhibition at 10 µM (U251): 28.6%
inhibition at 10 µM (HCC-2998): 5.6%
inhibition at 10 µM (NCI-H522): 58.1%
inhibition at 10 µM (PC-3): 51.4%
inhibition at 10 µM (TK-10): -9.28%
inhibition at 10 µM (CAKI-1): 27.6%
inhibition at 10 µM (RXF 393; [2]): -3.98%
inhibition at 10 µM (MDA-MB-435; [3]): 26.1%
inhibition at 10 µM (SR; SR): 53.3%

CN(C)c1ccc(/C=N/Nc2nc(N/N=C/c3ccc(N(C)C)cc3)nc(N3CCCCC3)n2)cc1 [compound 7g, 4-[(1e)-(2-{4-[(E)-2-{[4-(dimethylamino)phenyl]methylidene}chydrazin-1-yl]-6-(piperidin-1-yl)-1,3,5-triazin-2-yl}hydrazin-1-ylidene)methyl]-N,N-dimethylaniline]
inhibition at 10 µM (HOP-92; [4]): 16%
GI50 (HOP-92; HOP-92, five doses (0.01–100 μM), read-out: GI50): 1.47 µM
inhibition at 10 µM (MCF7): 68.9%
inhibition at 10 µM (NCI-H460): 29.1%
inhibition at 10 µM (NCI-H226): -1.93%
inhibition at 10 µM (OVCAR-5): 3.87%
inhibition at 10 µM (A549/ATCC): 21.6%
inhibition at 10 µM (OVCAR-4): -6.05%
inhibition at 10 µM (M14): 27.2%
inhibition at 10 µM (OVCAR-8): 43.4%
inhibition at 10 µM (NCI-H322M): -0.12%
inhibition at 10 µM (OVCAR-3): 34.4%
inhibition at 10 µM (KM 12): 6.98%
inhibition at 10 µM (SK-OV-3): -31.8%
inhibition at 10 µM (HS 578T): -6.05%
inhibition at 10 µM (NCI-H23): 3.27%
inhibition at 10 µM (HOP-62): 18.2%
inhibition at 10 µM (SNB-19): 13.9%
inhibition at 10 µM (SF-268): -5.33%
inhibition at 10 µM (U251): 50%
inhibition at 10 µM (HCC-2998): -3.1%
inhibition at 10 µM (NCI-H522): 3.84%
inhibition at 10 µM (PC-3): 15.2%
inhibition at 10 µM (TK-10): -18.4%
inhibition at 10 µM (CAKI-1): 10.1%
inhibition at 10 µM (RXF 393; [5]): 6.71%
GI50 (RXF 393; RXF 393, five doses (0.01–100 μM), read-out: GI50): 2.12 µM
inhibition at 10 µM (MDA-MB-435; [6]): 39.6%
GI50 (MDA-MB-435; MDA-MB-435, five doses (0.01–100 μM), read-out: GI50): 1.94 µM
inhibition at 10 µM (SR; [7]): 114%
GI50 (SR; SR, five doses (0.01–100 μM), read-out: GI50): 0.36 µM

Clc1cccc(/C=N/Nc2nc(N/N=C/c3cccc(Cl)c3Cl)nc(N3CCCCC3)n2)c1Cl [compound 7h, 2,4-Bis[(E)-2-[(2,3-Dichlorophenyl)methylidene]hydrazin-1-yl]-6-(piperidin-1-yl)-1,3,5-triazine]
inhibition at 10 µM (HOP-92; [4]): 13.8%
inhibition at 10 µM (MCF7): 28.8%
inhibition at 10 µM (NCI-H460): 66.2%
inhibition at 10 µM (NCI-H226): 2.51%
inhibition at 10 µM (OVCAR-5): 6.05%
inhibition at 10 µM (A549/ATCC): 44.4%
inhibition at 10 µM (OVCAR-4): 28.6%
inhibition at 10 µM (M14): 31.2%
inhibition at 10 µM (OVCAR-8): 27.1%
inhibition at 10 µM (NCI-H322M): 10%
inhibition at 10 µM (OVCAR-3): 91.8%
inhibition at 10 µM (KM 12): 32.8%
inhibition at 10 µM (SK-OV-3): -5.17%
inhibition at 10 µM (HS 578T): 15%
inhibition at 10 µM (NCI-H23): 0.28%
inhibition at 10 µM (HOP-62): 1.81%
inhibition at 10 µM (SNB-19): 4.59%
inhibition at 10 µM (SF-268): 13.6%
inhibition at 10 µM (U251): 47.1%
inhibition at 10 µM (HCC-2998): 2.64%
inhibition at 10 µM (NCI-H522): 23.4%
inhibition at 10 µM (PC-3): 29.9%
inhibition at 10 µM (TK-10): 8.78%
inhibition at 10 µM (CAKI-1): 15.9%
inhibition at 10 µM (RXF 393; [5]): -11.8%
inhibition at 10 µM (MDA-MB-435; [6]): -13.8%
inhibition at 10 µM (SR; [7]): 66.6%

O=[N+]([O-])c1cc(/C=N/Nc2nc(N/N=C/c3ccc(Cl)c([N+](=O)[O-])c3)nc(N3CCCCC3)n2)ccc1Cl [compound 7i, 2,4-Bis[(E)-2-[(4-Chloro-3-nitrophenyl)methylidene]hydrazin-1-yl]-6-(piperidin-1-yl)-1,3,5-triazine]
inhibition at 10 µM (HOP-92; [1]): -23.1%
inhibition at 10 µM (MCF7): 99.1%
inhibition at 10 µM (NCI-H460): 1.33%
inhibition at 10 µM (NCI-H226): 38.6%
inhibition at 10 µM (OVCAR-5): -8.09%
inhibition at 10 µM (A549/ATCC): -11.2%
inhibition at 10 µM (OVCAR-4): 13.1%
inhibition at 10 µM (M14): 7.7%
inhibition at 10 µM (OVCAR-8): 69%
inhibition at 10 µM (NCI-H322M): 28.8%
inhibition at 10 µM (OVCAR-3): 107%
inhibition at 10 µM (KM 12): 94.5%
inhibition at 10 µM (SK-OV-3): 1.24%
inhibition at 10 µM (HS 578T): 46.2%
inhibition at 10 µM (NCI-H23): 18.2%
inhibition at 10 µM (HOP-62): 56.3%
inhibition at 10 µM (SNB-19): 27.4%
inhibition at 10 µM (SF-268): 35.1%
inhibition at 10 µM (U251): 81.5%
inhibition at 10 µM (HCC-2998): 32.6%
inhibition at 10 µM (NCI-H522): 48.1%
inhibition at 10 µM (PC-3): 46.6%
inhibition at 10 µM (TK-10): 6.2%
inhibition at 10 µM (CAKI-1): 27.6%
inhibition at 10 µM (RXF 393; [2]): 0.13%
inhibition at 10 µM (MDA-MB-435; [3]): 19.3%
inhibition at 10 µM (SR; SR): 36.8%
